Data published in the Biogen ADME set (Fang et al. 2023).
In brackets after ≈: the same amount, converted by molar mass.

Conditions: for aqueous solubility: pH 6.8

Row | SMILES | MDR1-MDCK efflux ratio | intrinsic clearance, human liver microsomes [mL/min/kg] | intrinsic clearance, rat liver microsomes [mL/min/kg] | aqueous solubility [µg/mL] | fraction unbound, human plasma | fraction unbound, rat plasma
1 | Cc1ccc(CNC(=O)CN2CCC(n3nnc4cc(C)ccc43)CC2)cc1 | 3.73 | 155 | 1510 | 30.2 (≈ 79.9 µM) | – | –
2 | Cc1csc(N(C(=O)c2ccc(-n3cncn3)c(F)c2)C2CC2)n1 | 0.63 | 16.5 | 215 | 53.3 (≈ 155 µM) | – | –
3 | COc1ccc(Cl)cc1C(=O)NCCc1ccc(S(=O)(=O)NC(=O)NC2CCCCC2)cc1 | 123 | 28.7 | 535 | – | 0.00121 | 0.00114
4 | N#Cc1nc(-c2ccccc2)oc1NCc1ccc2c(c1)OCO2 | – | 208 | 707 | – | – | –
5 | N#Cc1cccc(-c2ccc(=O)n3c2[C@@H]2C[C@@H](CN(Cc4cccs4)C2)C3)c1 | 7.04 | 396 | 2000 | 48.9 (≈ 126 µM) | – | –
6 | CCn1nccc1-c1n[nH]c(=O)n1Cc1ccccc1 | – | – | – | 27 (≈ 100 µM) | – | –
7 | CC(C)NC(=O)C1(Cc2ccccc2-c2ccncc2)CCOCC1 | 51.7 | 269 | 981 | – | – | –
8 | Cc1ccc(-c2cnn3c(O)cc(Cn4cccn4)nc23)cc1 | 2.46 | 18.3 | 225 | – | – | –
9 | Nc1ccc(CC(=O)Nc2ccccc2F)cc1 | 0.66 | ≤ 4.74 | ≤ 10.7 | 54 (≈ 221 µM) | – | –
10 | NC(CO)(CO)CCc1ccc(Sc2cccc(OCc3ccccc3)c2)cc1Cl | – | 6.33 | 14.2 | – | – | –
11 | CC(C)Oc1ccc(CCNC(=O)N2CCC[C@H]2C(=O)N2CCCCC2)cc1 | 50.9 | 19.7 | 492 | – | – | –
12 | Nc1c(C(=O)NCC2CCCO2)sc(=S)n1-c1ccc(Cl)cc1 (stereo not given) | – | 35.3 | 92.3 | – | – | –
13 | CC(C)Cn1cnc2c1c(=O)[nH]c(=O)n2CC(C)C | 1.96 | ≤ 4.74 | 73.9 | 55.3 (≈ 209 µM) | – | –
14 | Cc1nc2ccccc2c(C(=O)O)c1C | – | ≤ 4.74 | ≤ 10.7 | – | – | –
15 | O=C(NCCCn1ccnc1)N1CCC12CCC2 | 30.5 | ≤ 4.74 | 27.8 | 41.1 (≈ 166 µM) | – | –
16 | Cc1ccc(C)c(CN2C(=O)C(=O)N(CC(C)C)C2=O)c1 | – | – | – | 1.75 (≈ 6.07 µM) | – | –

Row | SMILES | MDR1-MDCK efflux ratio | intrinsic clearance, human liver microsomes [mL/min/kg] | intrinsic clearance, rat liver microsomes [mL/min/kg] | aqueous solubility [µg/mL] | fraction unbound, human plasma | fraction unbound, rat plasma
17 | CC(C)c1nc(NCc2cccnc2)n(C)n1 | 3.72 | ≤ 4.74 | ≤ 10.7 | 38.2 (≈ 165 µM) | – | –
18 | CCc1nnc(N2CCCO2)c(C#N)c1CC | 0.746 | 16.6 | 147 | – | – | –
19 | C#CCNC(=O)CCc1c(C)nn(C)c1C | 7.96 | ≤ 4.74 | ≤ 10.7 | 60.9 (≈ 278 µM) | – | –
20 | COCc1noc(-c2ccc(-c3cc(C)cc(C)c3)nc2)n1 | 0.295 | – | – | 0.21 (≈ 0.711 µM) | – | –
21 | CC(C)(C)Nc1cc(NCC2CCOCC2)c2ncc(-c3ccc(C(=O)NC4CC4)cc3)n2n1 | 7.52 | – | – | 0.4 (≈ 0.865 µM) | – | –
22 | CCCN(CCC1=CCCCC1)C(=O)Cc1n[nH]c(=O)[nH]1 | 11.3 | ≤ 4.74 | 1270 | – | – | –
23 | COCc1nc(-c2cc(F)ccc2F)c(C)s1 | 0.684 | 133 | 425 | 3.6 (≈ 14.1 µM) | – | –
24 | Cn1cc(C#N)cc1-c1nc(C2CC2)nn1CCc1ccccc1 | 0.932 | 184 | 1870 | 49.2 (≈ 155 µM) | – | –
25 | CCC(=O)N(C)c1ccccc1C(=O)O | 1.28 | 23.7 | 1130 | 36.4 (≈ 176 µM) | – | –
26 | Cc1ccc(-c2cn(CC3CCN(Cc4c[nH]c(C)n4)CC3)nn2)cc1 | 23.3 | ≤ 4.74 | 32.4 | 25 (≈ 71.3 µM) | – | –
27 | COc1cccc(NC(=O)c2c([O-])n(-c3cccc(OC)c3)n[n+]2C)c1 | 0.637 | – | – | 0.19 (≈ 0.536 µM) | – | –
28 | N#CC1(NC(=O)CN2CCOCC2)CCCCCC1 | 2.14 | ≤ 4.74 | 65.6 | 45.1 (≈ 170 µM) | – | –
29 | Cc1ccc(CNc2ncnn2C)nc1 | 0.685 | ≤ 4.74 | ≤ 10.7 | – | – | –
30 | O=C(CCn1cc(Br)cn1)Nc1nc2ccccc2n1CCN1CCOCC1 | – | – | – | 42.3 (≈ 94.6 µM) | – | –
31 | COc1ccc(NC(C)=O)cc1NC(=O)CN(Cc1ccccc1)C(C)C | 2.21 | 1340 | 4200 | – | – | –
